The results in this text go back to patent publication US20070032477A1, “Pteridine derivatives useful for making pharmaceutical compositions” (priority 2003, published 2007).

Each structure is given as a SMILES string.

Experiment [1] in a line: Mixed lymphocyte reaction (MLR) assay. The format is cell-based, human. As to conditions: Homo sapiens, Lymphocyte; lowest concentration giving 50% suppression of the MLR; [3H]-thymidine.
The subject of experiment [2] is production of IL-1 β by PBMC in response to stimulation by LPS. Kind of experiment: IL-1 β assay. The format is cell-based, human. As to conditions: LPS 1 μg/ml, 72 hours, sandwich ELISA. Here is the method:
Peripheral blood mononuclear cells (herein referred as PBMC), in response to stimulation by lipopolysaccharide (LPS), a gram-negative bacterial endotoxin, produce various […], in particular human IL-1 β. Inhibition of the activation of PBMC can therefore be measured by the level of suppression of the production of IL-1 β by PBMC in response to stimulation by LPS.
Such inhibition measurement was performed as follows: PBMC were isolated from heparinized peripheral blood by density gradient centrifugation over Lymphoprep (commercially available from Nycomed, Norway). LPS was then added to the PMBC suspension in complete medium (10^6 cells/ml) at a final concentration of 1 μg/ml. The pteridine derivative to be tested was added at different concentrations (0.1 μM, 1 μM and 10 μM) and the cells were incubated at 37° C. for 72 hours in 5% CO2. The supernatants were collected, then IL-1 β concentrations were measured with an anti-IL-1 β antibody in a sandwich ELISA. The calorimetric reading of the ELISA was measured by a Multiskan RC plate reader (commercially available from ThermoLabsystems, Finland) at 450 nm (reference wavelength: 690 nm). Data analysis was performed with Ascent software 2.6. (also from ThermoLabsystems, Finland): a standard curve (recombinant human IL-1 β) was drawn and the amount (pg/ml) of each sample on the standard curve was determined.
The % suppression of human IL-1 β by the pteridine derivatives (drugs) of this invention was calculated using the formula: [formula]
Background: ELISA stands for enzyme-linked immunosorbent assay.

The test system of experiment [3] is production of TNF-α by PBMC in response to stimulation by LPS. Nature of the experiment: TNF-α assay. As to conditions: LPS 1 μg/ml, 72 hours, sandwich ELISA. The format is cell-based, human. A digest of the protocol: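 Cells were LPS-stimulated (1 μg/ml final) peripheral blood mononuclear cells at 10^6/ml, exposed 72 h at 37 °C to 0.1, 1 or 10 μM test compound.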

In experiment [4] the test system is mixed lymphocyte reaction (PBMC with allogeneic PBMC or Eppstein-Barr Virus-transformed human B cells as stimulator cells). Nature of the experiment: Mixed lymphocyte reaction (MLR) assay. The format is cell-based. The following applies: lowest concentration giving 50% suppression of the MLR; [3H]-thymidine.

Usually IC50 stands for the concentration needed to halve the response being measured. Low readings indicate inhibition by little substance, high ones a need for much substance. `COc1ccc(-c2cnc3nc(NCc4cccs4)nc(N)c3n2)cc1OC` [Example 80, 2-(2-thienylmethylamino)-4-amino-6-(3,4-dimethoxyphenyl)pteridine] showed an IC50 in experiment [1] of 4700 nM.
Still for that read-out and setting: under `COc1ccc(-c2cnc3nc(NCc4ccccc4)nc(N)c3n2)cc1OC` [Example 82, 2-benzylamino-4-amino-6-(3,4-dimethoxyphenyl)pteridine] stands 3200 nM; under `COc1ccc(-c2cnc3nc(N4CCCCC4)nc(N)c3n2)cc1OC` [Example 87, 4-amino-2-piperidino-6-(3,4-dimethoxyphenyl)pteridine], 8400 nM.
As to `COc1ccc(-c2cnc3nc(N)nc(N4CCN(C(=O)Oc5ccc6ccccc6c5)CC4)c3n2)cc1OC` [Example 98], the IC50 in experiment [2] is 6200 nM; in experiment [3], 80 nM; in experiment [4], 120 nM.
The corresponding values for `COc1ccc(-c2cnc3nc(N)nc(N4CCN(C(=O)Nc5ccc(F)cc5)CC4)c3n2)cc1OC` [Example 100] are 7400 nM, 510 nM and 7.4 nM.
Turning to `COc1ccc(-c2cnc3nc(N)nc(N4CCN(C(=O)Nc5ccc(C)cc5)CC4)c3n2)cc1OC` [Example 101, 2-amino-4-(N-4-methylphenyl-carbamoyl-piperazin-1-yl)-6-(3,4-dimethoxyphenyl)pteridine], the IC50 in experiment [2] turned out to be 5600 nM; in experiment [3] it was 430 nM; in experiment [4], 0.8 nM.
For `COc1ccc(-c2cnc3nc(N)nc(N4CCN(C(=O)Nc5ccsc5)CC4)c3n2)cc1OC` [Example 107, 2-amino-4-(N-3-thienylcarbamoyl-piperazin-1-yl)-6-(3,4-dimethoxyphenyl)pteridines], the IC50 was found to be 800 nM in experiment [2], 500 nM in experiment [3] and 3 nM in experiment [4].
Consider `COc1ccc(-c2cnc3nc(N)nc(N4CCN(C(=O)NCCc5cccs5)CC4)c3n2)cc1OC` [Example 108, 2-amino-4-[N-2-(2-thienyl)ethylcarbamoyl-piperazin-1-yl]-6-(3,4-dimethoxyphenyl)pteridine], for which the IC50 in experiment [2] was 1000 nM; in experiment [3] it was 400 nM; in experiment [4] it was 34 nM.
`COc1ccc(-c2cnc3nc(N)nc(N4CCN(CC5CCCCC5)CC4)c3n2)cc1OC` [Example 123]: the figures for the IC50 in experiment [2], in experiment [3] and in experiment [4] were 4200 nM, 800 nM and 3900 nM, respectively.
In the case of `COc1ccc(-c2cnc3nc(N)nc(N4CCC(C(=O)CN5CCNCC5)C4)c3n2)cc1OC` (stereo not drawn) [Example 131, 2-amino-4-(4-[2-(piperazin-1-yl)-acetyl]-pyrrolidino)-6-(3,4-dimethoxy-phenyl)pteridine], the IC50 in experiment [3] (Homo sapiens) came to 1900 nM; in experiment [1] it was 300 nM.
In the case of `COc1ccc(-c2cnc3nc(N)nc(N4CCN(CC(=O)N(C)c5ccccc5)CC4)c3n2)cc1OC` [Example 132, 2-amino-4-(2-[piperazin-1-yl]-acetic acid N-methyl N-phenyl amide)-6-(3,4-dimethoxyphenyl)pteridine], the results for the IC50 in experiment [2], in experiment [3] and in experiment [4] were 5300 nM, 50 nM and < 100 nM, respectively.
As for `COc1ccc(-c2cnc3nc(N)nc(N4CCN(Cc5cccc(C)c5)CC4)c3n2)cc1OC` [Example 136, 2-amino-4-(1-(3-methyl-benzyl)piperazinyl)-6-(3,4-dimethoxyphenyl)pteridine], the IC50 in experiment [2] came out at 4700 nM; in experiment [3], 800 nM; in experiment [4], 1400 nM.
As for `COc1ccc(-c2cnc3nc(N)nc(N4CCN(c5ncccn5)CC4)c3n2)cc1OC` [Example 147, 2-amino-4-((2-pyrimidinyl)-piperazin-1-yl)-6-(3,4-dimethoxyphenyl)pteridine], the figures for the IC50 in experiment [2], in experiment [3] and in experiment [4] were 4300 nM, 100 nM and 200 nM, respectively.
`COc1ccc(-c2cnc3nc(N)nc(N4CCN(CCCc5ccccc5)CC4)c3n2)cc1OC` [Example 149]: the IC50 was determined as 4900 nM in experiment [2], 300 nM in experiment [3] and 500 nM in experiment [4].
On to `COc1ccc(-c2cnc3nc(N)nc(N4CCN(c5ccc(Cl)c(Cl)c5)CC4)c3n2)cc1OC` [Example 150, 2-amino-4-((3,4-dichlorophenyl)-piperazin-1-yl)-6-(3,4-dimethoxyphenyl)pteridine], for which the IC50 came to 3500 nM in experiment [2], 300 nM in experiment [3] and 1000 nM in experiment [4].
The corresponding values for `COc1ccc(-c2cnc3nc(N)nc(N4CCN(CCn5cccc5)CC4)c3n2)cc1OC` [Example 153] are 2000 nM, 100 nM and 200 nM.
The corresponding values for `COc1ccc(-c2cnc3nc(N)nc(N4CCN(CCOc5ccccc5)CC4)c3n2)cc1OC` [Example 154] are 2200 nM, 30 nM and 100 nM.
The corresponding values for `COc1ccc(-c2cnc3nc(N)nc(N4CCN(Cc5ccncc5)CC4)c3n2)cc1OC` [Example 157] are 2300 nM, 300 nM and 500 nM.
Consider `COc1ccc(-c2cnc3nc(N)nc(N4CCN(CCc5ccccc5)CC4)c3n2)cc1OC` [Example 159, 2-amino-4-(N-phenethylpiperazin-1-yl)-6-(3,4-dimethoxyphenyl)pteridine], for which the IC50 in experiment [2] was found to be 5400 nM; in experiment [3] it was 20 nM; in experiment [4], 110 nM.
The corresponding values for `COc1ccc(N2CCN(c3nc(N)nc4ncc(-c5ccc(OC)c(OC)c5)nc34)CC2)cc1` [Example 161, 2-amino-4-((4-methoxyphenyl)-piperazin-1-yl)-6-(3,4-dimethoxyphenyl)pteridine] are 3200 nM, 60 nM and 400 nM.
With `COc1ccc(-c2cnc3nc(N)nc(N4CCN(c5ccc(Cl)cc5)CC4)c3n2)cc1OC` [Example 162, 2-amino-4-((4-chlorophenyl)-piperazin-1-yl)-6-(3,4-dimethoxyphenyl)pteridine], the IC50 worked out at 3800 nM in experiment [2], 400 nM in experiment [3] and 800 nM in experiment [4].
As for `COc1ccc(-c2cnc3nc(N)nc(N4CCN(CCC5OCCO5)CC4)c3n2)cc1OC` [Example 164, 2-amino-6-(3,4-dimethoxyphenyl)-4-(4-(2-(1,3)-dioxolan-2-yl-ethyl)-piperazin-1-yl)pteridine], the IC50 in experiment [3] (Homo sapiens) was 200 nM; in experiment [1] it was 2300 nM.
For the molecule `CCOCCN1CCN(c2nc(N)nc3ncc(-c4ccc(OC)c(OC)c4)nc23)CC1` [Example 165, 2-amino-6-(3,4-dimethoxyphenyl)-4-(4-(2-ethoxyethyl)-piperazin-1-yl)pteridine], the IC50 turned out to be 300 nM in experiment [3] (Homo sapiens) and 2900 nM in experiment [1].
Consider `CCC(CC)N1CCN(c2nc(N)nc3ncc(-c4ccc(OC)c(OC)c4)nc23)CC1` [Example 166, 2-amino-6-(3,4-dimethoxyphenyl)-4-(pent-3-yl-piperazin-1-yl)pteridine], for which the IC50 in experiment [2] was 4400 nM; in experiment [3] it was 800 nM; in experiment [4], 5300 nM.
As for `CCCCCN1CCN(c2nc(N)nc3ncc(-c4ccc(OC)c(OC)c4)nc23)CC1` [Example 167, 2-amino-6-(3,4-dimethoxyphenyl)-4-(1-pentyl-piperazin-1-yl)pteridine], the IC50 was found to be 3700 nM in experiment [2], 300 nM in experiment [3] and 3800 nM in experiment [4].
Taken in the same sequence, the figures for `COc1ccc(-c2cnc3nc(N)nc(N4CCN(c5ccc(F)cc5)CC4)c3n2)cc1OC` [Example 172, 2-amino-6-(3,4-dimethoxyphenyl)-4-((4-fluorophenyl)-piperazin-1-yl)pteridine] were 5100 nM, 50 nM and 100 nM.
Taken in the same sequence, the figures for `COc1ccc(-c2cnc3nc(N)nc(N4CCN(c5ccc(C)c(C)c5)CC4)c3n2)cc1OC` [Example 174, 2-amino-6-(3,4-dimethoxyphenyl)-4-((3,4-dimethylphenyl)-piperazin-1-yl)pteridine] were 5000 nM, 110 nM and 500 nM.
As for `COc1ccc(-c2cnc3nc(N)nc(N4CCN(c5nccs5)CC4)c3n2)cc1OC` [Example 178], the IC50 in experiment [2] was 4000 nM; in experiment [3], 150 nM; in experiment [4] it was 1300 nM.
As for `COc1ccc(-c2cnc3nc(N)nc(N4CCN(CC(=O)Nc5nccs5)CC4)c3n2)cc1OC` [Example 187, 2-amino-4-[2-(piperazin-1-yl)-acetic acid N-(2-thiazolyl)-amide]-6-(3,4-dimethoxyphenyl)pteridine], the values for the IC50 in experiment [2], in experiment [3] and in experiment [4] were 2400 nM, 60 nM and 100 nM, respectively.
